What was measured:
[1] = system: primary dermal fibroblasts; experiment: % change in live cells vs DMSO control; higher = less cytotoxic; details: time (h post treatment): 48
Description: (§1)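 Cytotoxicity in uninfected 2D primary donor keratinocytes (20 h post treatment) and fibroblasts (48 h post treatment), measured with NucSpot live/dead dyes on IncuCyte. Live cells are normalised to the 0.2% DMSO control and shown as % change. Three biological replicates for each of donors 3, 4 and 5.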

primary keratinocytes = experiment: as above; details: time (h post treatment): 20
Description: as §1

[2] = system: HSV-1 K26-GFP infected primary human skin cells; experiment: % change of HSV-1 GFP signal vs untreated infected cells; higher = less antiviral inhibition; details: cell type: primary dermal fibroblasts, time (h post infection): 48
Description: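 2D primary donor-derived dermal fibroblasts infected with GFP-HSV-1 K26 at MOI 1, treated 1 h later with compound dilutions and read at 48 hpi on IncuCyte. GFP integrated intensity is normalised to mock-infected and untreated infected wells (% change; -100 = full inhibition).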

[3] = system: HSV-1 K26-GFP infected 3D skin equivalent; experiment: % change of tdTomato fibroblast signal relative to infected DMSO control; higher = higher signal (negative = inhibition / toxicity); details: time (h post infection): 48
Description: (§2)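 Triplicate dose-response (0.04 to 10 uM) of 11 top compounds in 3D bioprinted skin equivalents (submerged and ALI models) infected with GFP-HSV-1 K26 at MOI 0.1 and fixed at 48 hpi. GFP (virus) and tdTomato (fibroblast viability) signals are normalised to per-plate controls.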

[4] = system: HSV-1 K26-GFP infected 3D skin equivalent; experiment: % activity on HSV-1 GFP signal (0 = infected DMSO control, -100 = uninfected control); higher = higher signal (negative = inhibition / toxicity); details: time (h post infection): 48
Description: as §2

Cc1nc(N(C)C(=O)Cc2ccc(-c3ccccn3)cc2)sc1S(N)(=O)=O [Pritelivir]
Details	% activity on HSV-1 GFP signal [%]	% change in live cells [%]	% change of HSV-1 GFP signal [%]	% change of tdTomato fibroblast signal [%]
[1], 0.082305 µM, donor: 3	–	-10.3	–	–
[1], 0.082305 µM, donor: 4	–	-2.67	–	–
[1], 0.082305 µM, donor: 5	–	7.67	–	–
[1], 0.246914 µM, donor: 3	–	-8.67	–	–
[1], 0.246914 µM, donor: 4	–	-1	–	–
[1], 0.246914 µM, donor: 5	–	7.67	–	–
[1], 0.740741 µM, donor: 3	–	-8	–	–
[1], 0.740741 µM, donor: 4	–	-6.33	–	–
[1], 0.740741 µM, donor: 5	–	3.67	–	–
[1], 2.22222 µM, donor: 3	–	-9	–	–
[1], 2.22222 µM, donor: 4	–	-2	–	–
[1], 2.22222 µM, donor: 5	–	0.667	–	–
[1], 6.66667 µM, donor: 3	–	-11	–	–
[1], 6.66667 µM, donor: 4	–	1.33	–	–
[1], 6.66667 µM, donor: 5	–	-1	–	–
[1], 20 µM, donor: 3	–	-10	–	–
[1], 20 µM, donor: 4	–	7	–	–
[1], 20 µM, donor: 5	–	-1	–	–
[1], 60 µM, donor: 3	–	-10	–	–
[1], 60 µM, donor: 4	–	3.33	–	–
[1], 60 µM, donor: 5	–	-13	–	–
[2], 0.001 µM, donor: 3	–	–	4.72	–
[2], 0.001 µM, donor: 4	–	–	1.2	–
[2], 0.003 µM, donor: 3	–	–	1.04	–
[2], 0.003 µM, donor: 4	–	–	-0.451	–
[2], 0.0091 µM, donor: 3	–	–	-2.12	–
[2], 0.0091 µM, donor: 4	–	–	-4.4	–
[2], 0.0274 µM, donor: 3	–	–	-9.3	–
[2], 0.0274 µM, donor: 4	–	–	-16.7	–
[2], 0.0823 µM, donor: 3	–	–	-30	–
[2], 0.0823 µM, donor: 4	–	–	-36.8	–
[2], 0.2469 µM, donor: 3	–	–	-61	–
[2], 0.2469 µM, donor: 4	–	–	-74.4	–
[2], 0.7407 µM, donor: 3	–	–	-81.3	–
[2], 0.7407 µM, donor: 4	–	–	-91.2	–
[2], 2.2222 µM, donor: 3	–	–	-90.9	–
[2], 2.2222 µM, donor: 4	–	–	-99.47	–
[2], 6.6667 µM, donor: 3	–	–	-93.7	–
[2], 6.6667 µM, donor: 4	–	–	-99.82	–
[2], 20 µM, donor: 3	–	–	-98.48	–
[2], 20 µM, donor: 4	–	–	-99.71	–
[3], 0.041152 µM, model: ALI	–	–	–	16.3
[3], 0.041152 µM, model: submerged	–	–	–	11.8
[3], 0.123457 µM, model: ALI	–	–	–	6.72
[3], 0.123457 µM, model: submerged	–	–	–	-3.78
[3], 0.37037 µM, model: ALI	–	–	–	0.531
[3], 0.37037 µM, model: submerged	–	–	–	0.74
[3], 1.111111 µM, model: ALI	–	–	–	-3.11
[3], 1.111111 µM, model: submerged	–	–	–	-3.09
[3], 3.33333 µM, model: ALI	–	–	–	-3.08
[3], 3.33333 µM, model: submerged	–	–	–	-6.25
[3], 10 µM, model: ALI	–	–	–	12
[3], 10 µM, model: submerged	–	–	–	-0.666
[4], 0.041152 µM, model: ALI	4.25	–	–	–
[4], 0.041152 µM, model: submerged	-6.28	–	–	–
[4], 0.123457 µM, model: ALI	-38.2	–	–	–
[4], 0.123457 µM, model: submerged	-11	–	–	–
[4], 0.37037 µM, model: ALI	-92.9	–	–	–
[4], 0.37037 µM, model: submerged	-37.4	–	–	–
[4], 1.111111 µM, model: ALI	-106	–	–	–
[4], 1.111111 µM, model: submerged	-83.7	–	–	–
[4], 3.33333 µM, model: ALI	-106	–	–	–
[4], 3.33333 µM, model: submerged	-96.7	–	–	–
[4], 10 µM, model: ALI	-102	–	–	–
[4], 10 µM, model: submerged	-94.6	–	–	–
primary keratinocytes, 0.082305 µM, donor: 3	–	-3.33	–	–
primary keratinocytes, 0.082305 µM, donor: 4	–	-1	–	–
primary keratinocytes, 0.082305 µM, donor: 5	–	-1.67	–	–
primary keratinocytes, 0.246914 µM, donor: 3	–	-6.67	–	–
primary keratinocytes, 0.246914 µM, donor: 4	–	-18.3	–	–
primary keratinocytes, 0.246914 µM, donor: 5	–	-7.33	–	–
primary keratinocytes, 0.740741 µM, donor: 3	–	-8.33	–	–
primary keratinocytes, 0.740741 µM, donor: 4	–	-6	–	–
primary keratinocytes, 0.740741 µM, donor: 5	–	-0.667	–	–
primary keratinocytes, 2.22222 µM, donor: 3	–	-6.33	–	–
primary keratinocytes, 2.22222 µM, donor: 4	–	-4.67	–	–
primary keratinocytes, 2.22222 µM, donor: 5	–	-5.33	–	–
primary keratinocytes, 6.66667 µM, donor: 3	–	-0.667	–	–
primary keratinocytes, 6.66667 µM, donor: 4	–	-44.3	–	–
primary keratinocytes, 6.66667 µM, donor: 5	–	0.333	–	–
primary keratinocytes, 20 µM, donor: 3	–	-38	–	–
primary keratinocytes, 20 µM, donor: 4	–	-28.7	–	–
primary keratinocytes, 20 µM, donor: 5	–	7.67	–	–
primary keratinocytes, 60 µM, donor: 3	–	-78.3	–	–
primary keratinocytes, 60 µM, donor: 4	–	-61.7	–	–
primary keratinocytes, 60 µM, donor: 5	–	-20	–	–

Reference: the supplement of paper PMC12533247
